# From patent US11945786B2, “Compounds, devices, and uses thereof” (SIGILON THERAPEUTICS, INC., priority 2016, dated 2024)
# Test system: Macrophage cell lines
# Test: In vitro macrophage adhesion assay (Example 8)
# Assay type: cell-based
# Conditions: compound conjugated to NHS-activated 96 well plate; 50000 cells per well, 37 degrees Celsius, one hour; averaged across eight wells; normalized PEG750=0, Fibronectin=100
# Experimental: Exemplary compounds of the invention were prepared at a concentration of 0.1M in a 0.1M bicarbonate buffer (pH 8.2) containing 25% v/v DMSO. Control solutions of 0.1M PEG750-amine and 0.01% fibronectin were prepared in 0.1M bicarbonate buffer (pH 8.2).
# Each small molecule amine solution (100 μL) was pipetted into eight wells of an NHS-activated 96 well plate and incubated 2 hours at room temperature. Each plate consisted of two lanes spiked with the two control solutions and ten lanes spiked with test molecule solutions. The test wells were rinsed once with 200 μL 0.1M bicarbonate buffer (pH 8.2) containing 25% v/v DMSO followed by three washes with 200 μL Hyclone™ water. The control wells were rinsed with 0.1M bicarbonate buffer (pH 8.2) followed by three 200 μL Hyclone™ water washes. Plates were dried at room temperature in a sterile hood and stored at 4-8° C. until use.
# Macrophage cell lines were plated onto 96 well plates, 50000 cells per well, and incubated at 37 degrees Celsius for one hour. Plates were then placed at a 45-degree angle and washed by applying fluid shear 5 times. Non-adherent and adherent cells were then separated and treated with a Cell titer-glo kit to quantify the number of live cells. Live cells were detected using luminescence-based plate reader measurements. The resulting cell adhesion values for each small molecule amine was averaged across the eight wells and standard deviations calculated. The average cell adhesion value for each small molecule was normalized relative to the averages for the two controls on each plate: PEG750=0, Fibronectin (FN)=100. Small molecule normalized value=(SM-PEG750)/(FN-PEG750). Results are expressed as a percentage of cells adhered on the plates. % Percent adherent cells=(Luminescence of adhered cells)/(Luminescence of adhered+non-adhered cells). In this table, “A” represents a cell adhesion value of <0% to about 10%; “B” represents a cell adhesion value of 10% to about 50%; and “C” represents a cell adhesion value of 50% to 100%.
row,Compound,cell adhesion value (percentage of cells adhered on the plates)
1,Fibronectin [reference compound],C (a cell adhesion value of 50% to 100%)
2,"NCCOCCOCCOCCn1cc(CN2CCS(=O)(=O)CC2)nn1 [Compound 3037, 4-((1-(2-(2-(2-(2-aminoethoxy)ethoxy)ethoxy)ethyl)-1H-1,2,3-triazol-4-yl)methyl)thiomorpholine 1,1-dioxide]",A (a cell adhesion value of <0% to about 10%)
3,"C=CC(=O)NCc1ccc(-n2cc(COC3CCCCO3)nn2)cc1 (stereo not drawn) [Compound 3040, N-(4-(4-(((tetrahydro-2H-pyran-2-yl)oxy)methyl)-1H-1,2,3-triazol-1-yl)benzyl)acrylamide]",C (a cell adhesion value of 50% to 100%)
